Measured values as given in US11439657B2, “Cancer stem cell growth inhibitor using miRNA” (CancerStem Tech Inc., priority 2017, dated 2022).
“Also recorded” adds a separate entry of the source.

Key:
[1] = test system: cancer stem cell population (ZsGreen+) established from pancreatic cancer cell line Panc-1; assay: Screening of miRNAs: cell count (cell viability) of the cancer stem cell population after transfection; format: cell-based, human; conditions: miRNA 10 pmol/well, lipofectamin 2000, cells counted 48 and 72 hours later, FIG. 4
Source text: A cancer stem cell line was established by transducing a pancreatic cancer cell line (Panc-1) with an ODC (Ornithine Decarboxylase)-Degron system capable of visualizing low metabolism that is a property of cancer stem cells using a retrovirus vector (FIG. 1a). The base sequence coding the used ODC-Degron is as set forth in SEQ ID NO: 10. Usually, cancer stem cells are so 26s proteasome hypometabolic that they cannot degrade the introduced fluorescently labeled Ornithine Decarboxylase Degron, and thus the fluorescent protein sufficiently accumulates to provide visualization.
However, even when the ODC-degron system was introduced into the pancreatic cancer cell line Panc-1, only about 0.06% cells emitting fluorescence (green) were obtained in total. With such a small number of cancer stem cells, a series of experiments including drug screening cannot be performed. Accordingly, further enrichment of cancer stem cells provided a cancer stem cell population in which cells having observed fluorescent coloring (i.e., cancer stem cells) accounted for about 81.18% in total (FIG. 1b). The obtained cancer stem cell population was designated as ZsGreen+.
A cell suspension prepared by suspending the cancer stem cell population (ZsGreen+) in a medium (DMEM medium containing 10% by volume FBS) was seeded in each well of a 24-well plate at a density of 5000 to 10000 cells/well, followed by culture at 37° C. overnight. Thereafter, according to the lipofectamin 2000 protocol, each miRNA was transfected at 10 pmol/well, and 48 hours and 72 hours later, the cells were counted. In addition, tests were also conducted under the same condition on a case where the miRNA was not introduced (untreated group, control), a case where has-miR-34a (SEQ ID NO: 8) was used (positive control) in place of the selected miRNA, and a case where a control miRNA (SEQ ID NO: 9) was used (NC1, negative control) in place of the selected miRNA. In addition, for comparison, the non-cancer stem cell population (ZsGreen−) was used in place of the cancer stem cell population (ZsGreen+) to conduct tests under the same condition.
The ratio of the number of cells under each condition to the number of control cells into which the miRNA was not introduced (cell viability, %) was determined.

[2] = test system: solid tumor from the cancer stem cell population (ZsGreen+); assay: Mouse subcutaneous solid tumor model test; format: in vivo, BALB/cA nude mice; conditions: carbonate apatite nanoparticles containing the miRNA, 40 μg/dose, tail vein i.v., days 0-19; tumor excised on the 24th day
Description: In 100 ml of distilled water, 0.37 g of NaHCO3, 90 μl of NaH2PO4.2H2O (1M) and 180 μl of CaCl2 (1 M) were added in this order and dissolved, and the pH was adjusted to 7.5 with 1N HCl. This was filtered through 0.2 μm diameter filter. Per 1 ml of the resultant buffer, 2 μg of miRNA and 4 μl of CaCl2 (1 M) were mixed and incubated in a water bath at 37° C. for 30 minutes. Then, spin down was performed at 15000 rpm×5 minutes. The resultant pellet was dispersed in physiological saline (containing 0.5 wt % albumin). Accordingly, a dispersion of composite particles containing the miRNA in carbonate apatite particles was obtained. The resultant dispersion was subjected to ultrasonic vibration treatment for 10 minutes just prior to testing. Note that the ultrasonic vibration treatment was performed for 10 minutes using a water bath with an ultrasonic vibration function, in which the dispersion contained in a plastic container was floated on water set to 20° C., under conditions of high frequency output of 55 W and oscillation frequency of 38 kHz. The preparation obtained in this way was immediately used for the tests described below.
Note that it is confirmed in the measurement using a scanning probe microscope that the dispersion of ultrasonic vibration treatment includes composite particles composed of carbonate apatite nanoparticles containing the miRNA having an average particle diameter of 50 nm or less. It is also confirmed that the resultant composite particles contain about 20 μg of the miRNA per 1 mg of carbonate apatite.
The cancer stem cell population (ZsGreen+) obtained in Test Example 1 was subcutaneously injected at 5×10^5 cells to the left and right backs of 6 to 8 weeks age BALB/cA nude mice (manufactured by CLEA Japan, Inc.) to produce solid tumor model mice. When the tumor reached about 20 mm^3 in size, the mice were randomly divided into an hsa-miR-136-5p administration group (hsa-miR-136-5p), an untreated group, and a negative control group (control miRNA). In the hsa-miR-136-5p administration group, the day at which the tumor reached about 20 mm^3 in size was 0th day. On the 0th, 3rd, 5th, 7th, 10th, 12th, 14th, 17th and 19th days, carbonate apatite nanoparticles containing the hsa-miR-136-5p were intravenously injected into the tail vein at 40 μg/dose in terms of the amount of hsa-miR-136-5p. In the negative control group, carbonate apatite nanoparticles containing a control miRNA (SEQ ID NO: 9) were intravenously injected into the tail vein at the same schedule and dose as those for the miRNA136-5p administration group. In the untreated group, no drug was administered. During the test period, the tumor volume on the back of the mouse (longer diameter×shorter diameter×shorter diameter×1/2) was measured over time, and on the 24th day, the tumor was excised from the mice and observed for size, and its weight was measured.
A mouse subcutaneous solid tumor model test was conducted in the same manner as in Test Example 2 except that hsa-miR-3065-3p was used in place of hsa-miR-136-5p.
A mouse subcutaneous solid tumor model test was conducted in the same manner as in Test Example 2 except that hsa-miR-181-5p was used in place of hsa-miR-136-5p.

[3] = test system: human pancreatic cancer cells (Bxpc3 line); assay: Antitumor effect on human pancreatic cancer cells (1), cell count after transfection; format: cell-based; conditions: 10 pmol/well, FIG. 8
Description: (§1) A cell suspension prepared by suspending human pancreatic cancer cells (Bxpc3 line) in D-MEM medium (containing 10% by volume FBS) was seeded in each well of a 24-well plate at 3×10^3 cells/well, followed by culture at 37° C. overnight. Thereafter, according to the lipofectamin 2000 protocol, each miRNA was transfected at 10 pmol/well, and 48 hours later, the cells were counted. In addition, tests were also conducted under the same condition on a case where the miRNA was not introduced (untreated group), a case where hsa-miR-34a (SEQ ID NO: 8) was used (positive control) in place of the miRNA, and a case where a control miRNA (SEQ ID NO: 9) was used (control miRNA, negative control) in place of the selected miRNA.

[4] = test system: human pancreatic cancer cells (PSN-1 line); assay: Antitumor effect on human pancreatic cancer cells (2), cell count after transfection; format: cell-based; conditions: 10 pmol/well, 48 hours, FIG. 9
Description: as §1
As to hsa-miR-136-5p, hsa-miR-3065-3p and hsa-miR-181a-5p, evaluation was performed of the antitumor effect on human pancreatic cancer cells. The specific test method is the same as that for Test Example 4 except that a PSN-1 line was used as human pancreatic cancer cells.

[5] = test system: human gastric cancer cells (AGS line); assay: Antitumor effect on human gastric cancer cells, cell count after transfection; format: cell-based; conditions: 10 pmol/well, 48 hours, FIG. 10
Description: as §1
As to hsa-miR-136-5p, hsa-miR-3065-3p and hsa-miR-181a-5p, evaluation was performed of the antitumor effect on human gastric cancer cells. The specific test method is the same as that for Test Example 4 except that human gastric cancer cells (AGS line) were used as cancer cells.

[6] = test system: human large bowel cancer cells (DLD1 line); assay: Antitumor effect on human large bowel cancer cells, cell count after transfection; format: cell-based; conditions: 10 pmol/well, FIG. 11
Description: as §1
(§2) As to hsa-miR-136-5p, hsa-miR-3065-3p, hsa-miR-4727-5p, hsa-miR-378g, hsa-miR-181a-5p, hsa-miR-362-5p and hsa-miR-608, evaluation was performed of the antitumor effect on human large bowel cancer cells. The specific test method is the same as that for Test Example 4 except that human large bowel cancer cells (DLD1 line) were used as cancer cells, and that the cells were counted 72 hours after transfection.

[7] = test system: human esophageal cancer cells (TE11 line); assay: Antitumor effect on human esophageal cancer cells, cell count after transfection; format: cell-based; conditions: 10 pmol/well, FIG. 12
Description: as §1
as §2, with “hsa-miR-378g and” for “hsa-miR-378g,”, “hsa-miR-181a-5p,” for “hsa-miR-181a-5p, hsa-miR-362-5p and hsa-miR-608,”, “esophageal” for “large bowel”, “(TE11” for “(DLD1”

[8] = 72 hours, positive control hsa-miR-34a
[9] = cells counted 72 hours after transfection

Question: Which “proliferation inhibitory effect on cancer stem cells (cell viability)” value [1] does the source give for “hsa-miR-181a-5p: human-derived miR-181a-5p; base sequence set forth in SEQ ID NO: 5 as mature miRNA (AACAUUCAACGCUGUCGGUGAGU; listed as RNA, chemistry not given here; listed as Homo sapiens)” here?
Answer: Its value is “effectively suppress proliferation of cancer stem cells; also recorded: prominent proliferation inhibitory effect”.

Question: And the “antitumor effect as compared to the untreated group and the negative control group (control miRNA)” value [2]?
Answer: The value was “remarkably higher antitumor effect”.

Question: What about the antitumor effect ([3]; 48 hours, positive control hsa-miR-34a) of the same substance?
Answer: Its antitumor effect is “much better antitumor effect than that of hsa-miR-34a”.

Question: What about the “proliferation inhibitory effect on pancreatic cancer cells” value ([3]; cells counted 48 hours later) of the same substance?
Answer: Its value is “strong proliferation inhibitory effect”.

Question: What about the “proliferation inhibitory effect on pancreatic cancer cells” value [4] of the same substance?
Answer: The value was “strong proliferation inhibitory effect”.

Question: And the “proliferation inhibitory effect on gastric cancer cells” value [5]?
Answer: The value was “strong proliferation inhibitory effect”.

Question: And the antitumor effect ([5]; positive control hsa-miR-34a)?
Answer: Its antitumor effect is “much better antitumor effect than that of hsa-miR-34a; also recorded: particularly remarkable antitumor effect”.

Question: What about the antitumor effect [6, 8] of the same substance?
Answer: The antitumor effect was “much better antitumor effect than that of hsa-miR-34a; also recorded: particularly remarkable antitumor effect”.

Question: What about the “proliferation inhibitory effect on large bowel cancer cells” value [6, 9] of the same substance?
Answer: The value was “strong proliferation inhibitory effect”.

Question: And the antitumor effect [7, 8]?
Answer: The antitumor effect was “much better antitumor effect than that of hsa-miR-34a; also recorded: particularly remarkable antitumor effect”.

Question: What about the “proliferation inhibitory effect on esophageal cancer cells” value [7, 9] of the same substance?
Answer: The value was “strong proliferation inhibitory effect”.
